Data published in US11970480.
Where two headings read alike, the source gives them in different places.

Key:
[1] = 21-membered ring
[2] = from 5,5′-(propane-1,3-diylbis(oxy))bis(4-chloro-3-nitrobenzamide) + butane-1,4-diamine; snar bond; 15-membered ring; DIEA; DMSO; 714.0 mM; 120.0 °C; 2 steps
[3] = amide bond, 2 steps

Molecule: CCn1nc(C)c2c1C(=O)Nc1nc3cc(C(N)=O)ccc3n1CC=CCn1c(nc3cc(C(N)=O)ccc31)NC(=O)c1cc(C)nn1CCCCC2
- ring closure, yield of all isomers (from C=CCn1c(NC(=O)c2cc(C)nn2CCCCCc2c(C)nn(CC)c2C(=O)Nc2nc3cc(C(N)=O)ccc3n2CC=C)nc2cc(C(N)=O)ccc21, rcm bond, Hoveyda-Grubbs II, 1,2-dichloroethane, 2.69 mM, 100.0 °C, 4.0 h): 35%
- ring closure, isolated yield ([1]; from C=CCn1c(NC(=O)c2cc(C)nn2CCCCCc2c(C)nn(CC)c2C(=O)Nc2nc3cc(C(N)=O)ccc3n2CC=C)nc2cc(C(N)=O)ccc21, rcm bond, Hoveyda-Grubbs II (20 mol%), DCE, 2.69 mM, 100.0 °C): 35%

Molecule: CCn1nc(C)c2c1C(=O)Nc1nc3cc(C(N)=O)ccc3n1CCCCn1c(nc3c(CNC(=O)OC(C)(C)C)cccc31)NC(=O)c1cc(C)nn1CCCCC2
- ring closure, yield of all isomers (from CCn1nc(C)c(CCCCCn2nc(C)cc2C(=O)Nc2nc3c(CNC(=O)OC(C)(C)C)cccc3n2CCCCn2c(N)nc3cc(C(N)=O)ccc32)c1C(=O)O, amide bond, EDC/HOBt, DIEA, cat. DMAP, DMF, 18.2 mM, 60.0 °C, 6.0 h): 56%
- ring closure, isolated yield ([1]; from CCn1nc(C)c(CCCCCn2nc(C)cc2C(=O)Nc2nc3c(CNC(=O)OC(C)(C)C)cccc3n2CCCCn2c(N)nc3cc(C(N)=O)ccc32)c1C(=O)O, amide bond, EDC/HOBt/DIEA/DMAP, DMF, 18.2 mM, 60.0 °C): 56%

Molecule: CCn1nc(C)c2c1C(=O)Nc1nc3cc(C(N)=O)ccc3n1CCCCn1c(nc3c(N(C)Cc4ccc(OC)cc4)cccc31)NC(=O)c1cc(C)nn1CCCCC2
- ring closure, yield of all isomers (from CCn1nc(C)c(CCCCCn2nc(C)cc2C(=O)Nc2nc3c(N(C)Cc4ccc(OC)cc4)cccc3n2CCCCn2c(N)nc3cc(C(N)=O)ccc32)c1C(=O)O, amide bond, EDC/HOBt/DMAP, DMF, 23.7 mM, 60.0 °C, 32.0 h): 20.4%
- ring closure, isolated yield ([1]; from CCn1nc(C)c(CCCCCn2nc(C)cc2C(=O)Nc2nc3c(N(C)Cc4ccc(OC)cc4)cccc3n2CCCCn2c(N)nc3cc(C(N)=O)ccc32)c1C(=O)O, amide bond, EDC/HOBt/DMAP, DMF, 23.7 mM, 60.0 °C): 20.4%

Molecule: NC(=O)c1cc2c(c([N+](=O)[O-])c1)NCCCCNc1c(cc(C(N)=O)cc1[N+](=O)[O-])OCCCO2
- ring closure, crude yield [2]: 90%

Molecule: 2-amino-1-(3-(3-(2-(2-amino-5-carbamoyl-1H-benzo[d]imidazol-1-yl)ethyl)phenyl)-propyl)-1H-benzo[d]imidazole-5-carboxamide + 4-(5-(5-carboxy-3-methyl-1H-pyrazol-1-yl)pentyl)-1-ethyl-3-methyl-1H-pyrazole-5-carboxylic acid
- ring closure, yield after HPLC ([3]; the molecule shown is the open-chain precursor, 25-membered ring, HATU, NMP, 40.3 mM, 40.0 °C): 0.6%

Molecule: 8-Ethyl-10,13,13,18-tetramethyl-7,20-dioxo-6,7,8,11,12,13,14,15,20,21,28,29,30,31-tetradecahydrobenzo[4,5]imidazo[1,2-a]benzo[4,5]imidazo[2,1-p]dipyrazolo[5,1-e:4′,3′-1][1,3,6,15,17]pentaazacyclohenicosine-3,24-dicarboxamide
- ring closure, yield after HPLC ([3]; 21-membered ring, HATU, NMP, 51.0 mM, 40.0 °C): 3.4%

Molecule: 8-Ethyl-10,17-dimethyl-7,19-dioxo-7,8,11,12,13,14,19,20,27,28,29,30-dodecahydro-6H-benzo[4,5]imidazo[1,2-a]benzo[4,5]imidazo[2,1-o]dipyrazolo[5,1-e:4′,3′-k][1,3,6,14,16]pentaazacycloicosine-3,23-dicarboxamide
- ring closure, yield after HPLC ([3]; 20-membered ring, HATU/DIEA, NMP, 61.5 mM, 120.0 °C): 2%

Molecule: 8-Ethyl-10,18-dimethyl-7,20-dioxo-6,7,8,11,14,15,20,21,28,29,30,31-dodecahydrobenzo[4,5]imidazo[1,2-a]benzo[4,5]imidazo[2,1-p]dipyrazolo[5,1-e:4′,3′-1][1,3,6,15,17]pentaazacyclohenicosine-3,24-dicarboxamide
- ring closure, yield after HPLC ([3]; 21-membered ring, HATU/DIEA, NMP, 92.4 mM, 80.0 °C): 1.7%

Molecule: 8-ethyl-10,18,30-trimethyl-7,20-dioxo-7,8,11,12,13,14,15,20,21,28,29,30,31,32-tetradecahydro-benzo[4,5]imidazo[2,1-b]benzo[4,5]imidazo[1,2-l]dipyrazolo[5,1-m:4′,3′-t][1,3,6,9,11,14]hexaazacyclodocosine-3,24-dicarboxamide
- ring closure, yield after HPLC ([3]; 22-membered ring, HATU/DIEA, NMP, 68.9 mM, 140.0 °C): 4.56%

Molecule: (1r,39r)-14-ethyl-16,25-dimethyl-12,28-dioxo-2,9,11,14,15,23,24,29,31,38-decaazaoctacyclo[37.2.2.0^2,^1^0.0^3,^8.0^13,^1^7.0^23,^2^7.0^3^0,^3^8.0^32,^3^7]tritetraconta-3,5,7,9,13(17),15,24,26,30,32,34,36-dodecaene-6,34-Dicarboxamide
- ring closure, isolated yield ([1]; amide bond, HATU/DIEA, DMF, 116.0 mM, 80.0 °C, 2 steps): 0.3%

Molecule: (E)-1,26-Dibromo-8-ethyl-10,18-dimethyl-7,20-dioxo-6,7,8,11,12,13,14,15,20,21,28,31-dodecahydrobenzo[4,5]imidazo[1,2-a]benzo[4,5]imidazo[2,1-p]dipyrazolo[5,1-e:4′,3′-1][1,3,6,15,17]pentaazacyclohenicosine-3,24-dicarboxamide
- ring closure, isolated yield ([1]; amide bond, HATU/DIEA, DMF, 59.3 mM, 90.0 °C, 2 steps): 24%

Molecule: (E)-8-Ethyl-1,26-dimethoxy-10,18-dimethyl-7,20-dioxo-6,7,8,11,12,13,14,15,20,21,28,31-dodecahydrobenzo[4,5]imidazo[1,2-a]benzo[4,5]imidazo[2,1-p]dipyrazolo[5,1-e:4′,3′-1][1,3,6,15,17]pentaazacyclohenicosine-3,24-dicarboxamide, bis trifluoroacetic acid salt
- ring closure, yield after HPLC ([3]; 21-membered ring, HATU/TEA, DMF, 24.4 mM, 100.0 °C): 1%
